According to patent US11466069B2, “Methods of treatment and novel constructs” (AUCKLAND UNISERVICES LIMITED, priority 2017, dated 2022):
“Also recorded” adds a separate entry of the source. Non-standard residues stand in square brackets, D forms with d. Residues, ends and D or L forms follow the SMILES beside them. No end group written: not given here.

What was measured:
gap junctions = assay: Lucifer Yellow dye scrape/load gap junction assay; type: cell-based, human; settings: ARPE-19, scrape/load; XG19 5 μM
Description: Peptides were applied onto cells for uptake as previously mentioned. Peptide solutions were removed from the cells and the cells were exposed to 0.1% […]/PBS dye (LY). A vertical and horizontal scrape was created in the cell monolayer using a pipette tip. The cells were then incubated at room temperature for 15 min. The LY dye solution was removed, cells were washed in PBS and fixed in 4% formaldehyde PBS with nuclei counterstained with DAPI. Coverslips were mounted in anti-fade medium (Citifluor™ AF1) and slides were imaged.

Cx43 hemichannel [1] = target: T1, Cx43 hemichannel (Homo sapiens, UniProt P17302); assay: Hemichannel mediated ATP release assay (low calcium solution); type: cell-based; set-up: endogenous in cells; settings: for ATP release compared to low calcium, 30 min: ARPE-19, 5 μM XG19, 100 μM Peptide5, 100 μM CBX, 30 min low calcium
T1 sequence (P17302 2-382 limits assumed): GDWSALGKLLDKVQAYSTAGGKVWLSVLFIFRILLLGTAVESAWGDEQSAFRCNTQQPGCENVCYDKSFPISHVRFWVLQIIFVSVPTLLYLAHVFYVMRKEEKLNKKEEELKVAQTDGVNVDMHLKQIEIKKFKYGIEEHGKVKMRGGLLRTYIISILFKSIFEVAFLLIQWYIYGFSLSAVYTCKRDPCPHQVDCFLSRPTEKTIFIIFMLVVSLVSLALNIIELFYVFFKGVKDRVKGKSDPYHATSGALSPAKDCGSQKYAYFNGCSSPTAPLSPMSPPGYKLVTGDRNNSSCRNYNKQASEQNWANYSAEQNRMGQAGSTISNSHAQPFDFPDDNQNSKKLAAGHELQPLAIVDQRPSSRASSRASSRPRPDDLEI
Description: Peptides were applied onto cells for uptake studies as previously described. Peptide solutions were removed from the cells, which were then exposed to either low calcium (Ca^2+) solution or HAIR solution to open hemichannels or high calcium solution to close hemichannels for […] at 37° C., 5% CO2.

ARPE-19 cells [2] = assay: MTT cytotoxicity assay; type: cell-based, human; settings: ARPE-19 cells, 5, 10 or 20 μM for 1 or 24 h
Description: ARPE-19 cells were exposed to DMEM/F12 (normal medium) or HAIR solution for 1 h. XG19 was mixed in DMEM/F12 or HAIR solution and applied to ARPE-19 cells at 0, 5, 10 or 20 μM concentrations for either 1 or 24 h at 37° C., 5% CO2. After the incubation period, the solutions in each well were removed and replaced with 0.5 mg/mL, MTT (Thermo Fisher Scientific) in PBS and incubated for 4 h at 37° C. and 5% CO2. The MTT/PBS solution was then removed and replaced with HCl-isopropanol solution (0.04 M) to dissolve formed formazan. The intensity of purple colour was quantified by measuring absorbance at 570 nm with correction of interference at 650 nm (BioTek Synergy HT).

Cx43 hemichannel [3] = target: T1, Cx43 hemichannel; assay: Hemichannel mediated EthD-1 dye uptake assay; type: cell-based; set-up: endogenous in cells; settings: ARPE-19 cells, 5 μM peptide, low calcium solution
Description: Peptides were applied onto cells for uptake as previously mentioned. Peptide solutions were removed from the cells exposed to 2 μM ethidium homodimer-1 (EthD-1) in either Hanks Buffered Salt Solution (137 mM NaCl, 5.4 mM KCl, 0.25 mM Na2HPO4, 0.1 g glucose, 0.44 mM KH2PO4, 1.0 mM MgSO4, 4.2 mM NaHCO3)+EGTA (5 mM) (low calcium solution) to open hemichannels or high calcium (Ca′) solution (Hanks Buffered Salt Solution+1.3 mM CaCl2)) for […] at 37° C., 5% CO2. The solutions were removed, cells were washed in PBS and fixed in 4% formaldehyde PBS before counterstaining nuclei with DAPI. Coverslips were mounted in anti-fade medium (Citifluor™ AF1) and slides were imaged.

hypoxic ARPE-19 cells = assay: Cellular uptake in hypoxic ARPE-19 cells (HAIR solution); type: cell-based, human; settings: ARPE-19, FITC labelled peptide, HAIR solution 1 h
Description: (§1) Peptides or control channel blockers, carbenoxolone (CBX) (Sigma) or lanthanum chloride (LaCl3; Sigma) were mixed with DMEM/F12 or EGM-2™ BulletKit™ media at appropriate concentrations and applied onto cells for 1 h at 37° C., 5% CO2. For cell uptake under hypoxic conditions, peptides were delivered in hypoxic, acidic ion-shifted Ringers (HAIR) solution (13) for 1 h at 37° C., 5% CO2. For cell uptake under hyperglycaemia and inflammation conditions peptides were delivered in hyperglycaemia and inflammation solution for 24 h at 37° C., 5% CO2. The solutions were removed and cells were washed in PBS and fixed in 4% formaldehyde PBS with nuclei were counterstained with DAPI. Coverslips were mounted in anti-fade medium (Citifluor™ AF1) and cells were visualised by confocal microscopy.

Cx43 hemichannel [4] = target: T1, Cx43 hemichannel; settings: ethidium bromide uptake, literature (6); cited from earlier work
ARPE-19 cells [5] = assay: Cellular uptake of FITC labelled peptides into ARPE-19 cells in normal medium; type: cell-based, human; settings: for concentration at which cellular uptake was detected (FITC fluorescence): normal medium, FITC labelled peptide, 1 h, 10-50 μM (Gap19 up to 100 μM)
Description: Cell culture and maintenance Unless otherwise mentioned, all cell culture reagents were purchased from Gibco® or Invitrogen™ (Life Technologies). ARPE-19 cells are from a human retinal pigment epithelium cell line purchased from American Type Culture Collection (ATCC), and were maintained in T25 flasks in DMEM/F12 (DMEM/F-12, GlutaMAX™ medium containing 10% heat inactivated foetal bovine serum (FBS), and 1% Antibiotic-Antimicotic (Sigma)) at 37° C. with 5% CO2.
as §1

hRMEC cells = assay: Cellular uptake of FITC labelled peptides into hRMEC cells (confocal microscopy); type: cell-based, human
Description: Primary human retinal microvascular endothelial cells (hRMEC; Neuromics) were cultured and maintained in T25 flasks in EGM-2™ BulletKit™ media (Lonza) containing endothelial basal media (EBM-2; Lonza) and EGM-2 SingleQuots™ (Lonza), supplemented with 10% fetal bovine serum and 1% Antibiotic-Antimicotic (Sigma) at 37° C. with 5% CO2. VEGF was excluded from the EGM-2 media.
as §1

gap junction = settings: literature (6); cited from earlier work
[6] = tested on: hyperglycaemic and inflamed ARPE-19 cells; assay: Cellular uptake in hyperglycaemic and inflamed ARPE-19 cells; type: cell-based, human; settings: ARPE-19, FITC labelled peptide, 24 h
Description: The inflammatory cytokines TNFα and Il-1β (PeproTech) were added to achieve a final concentration of 10 ng/ml each. Antibiotic-Antimycotic was added to the solution to achieve a 1% concentration. The solution was made fresh before application to cells.
as §1

With `CC1(C)[C@@H](OC(=O)CCC(=O)O)CC[C@]2(C)[C@H]3C(=O)C=C4[C@@H]5C[C@@](C)(C(=O)O)CC[C@]5(C)CC[C@@]4(C)[C@]3(C)CC[C@@H]12` [CBX, carbenoxolone] the “gap junction function (Lucifer Yellow dye spread to neighbouring cells)” value (gap junctions) was “the dye was not further transported to any neighbouring cells; also recorded: inhibited gap junction communication” and the “ATP release compared to low calcium, 30 min” value (Cx43 hemichannel [1]) was “reduced ATP release”.
With `CC[C@H](C)[C@H](NC(=O)[C@H](CCC(=O)O)NC(=O)[C@@H](NC(=O)[C@H](CCC(N)=O)NC(=O)[C@H](CCCCN)NC(=O)CNC(=O)CNC(=O)[C@H](NC(=O)[C@H]1CCCN1C(=O)[C@@H](CCCNC(=N)N)NC(=O)[C@@H](CC(C)C)NC(=O)[C@@H](CS)NC(=O)[C@H](N)CC(C)C)C(C)C)[C@@H](C)CC)C(=O)N[C@@H](CCCCN)C(=O)N[C@@H](CCCCN)C(=O)N[C@@H](Cc1ccccc1)C(=O)N[C@@H](CCCCN)C(=O)O` [XG19] (H-[dL][dC][dL][dR][dP][dV]GGKQIEIKKFK-OH) the “cell viability (MTT) compared to untreated cells” value (ARPE-19 cells [2]) was “no significant difference in cell viability”.
In the case of “FITC-XG19: FITC labelled XG19 used in the cellular uptake experiments ([dL][dC][dL][dR][dP][dV]GGKQIEIKKFK; also: FITC label, site not given here)”, the “EthD-1 dye uptake (mean fluorescence intensity) compared to low calcium treatment” value (Cx43 hemichannel [3]) is reported as “significant reduction of the mean fluorescence intensity; also recorded: reduced EthD-1 uptake”.
For “KQIEIKKFK (listed as Homo sapiens) [Gap19]”, the “cellular uptake in hypoxic solution vs normal media” value (hypoxic ARPE-19 cells) is listed as “undetectable in either condition; also recorded: no change in uptake”, the “concentration at which efficacy improved” value (Cx43 hemichannel [4]) is listed as 344 to 688 µM and the “concentration with no effect on Cx43 hemichannel inhibition” value (Cx43 hemichannel [4]) is listed as > 172 µM. For the same molecule, the “concentration at which cellular uptake was detected (FITC fluorescence)” value (ARPE-19 cells [5]; ARPE-19 cells) was > 100 µM, the “cellular uptake (FITC fluorescence) at 100 μM” value (hRMEC cells; 100 μM, still lower than 10 μM XG19) was “Some uptake was observed” and the “concentration at which cellular uptake was detected (FITC fluorescence)” value (hRMEC cells; FITC labelled peptide, 1 h, XG19 10, 20, 50 μM, Gap19 10, 20, 50, 100 μM) was > 50 µM. For the same molecule, the “gap junction function post uptake” value (gap junction) was “maintain gap junction function” and the “cellular uptake in hyperglycaemia and inflammation solution vs normal media” value [6] was “undetectable in either condition; also recorded: no change in uptake”.
With VDCFLSRPTEKT [PepS] the “ATP release relative to CBX treated group” value (Cx43 hemichannel [1]; ARPE-19, low calcium solution) was “greater than CBX” and the “ATP release compared to low calcium, 30 min” value (Cx43 hemichannel [1]) was “reduced ATP release”.
In the case of “YGRKKRRQRRRKQIEIKKFK [TAT-Gap19, fusion peptide of TAT peptide and Gap19]”, the “concentration at which cells were saturated with peptide” value (ARPE-19 cells [5]; ARPE-19 cells) is reported as 20 µM, the “cellular uptake (FITC fluorescence), dependence on concentration” value (ARPE-19 cells [5]; ARPE-19 cells, 10, 20, 50 μM) is reported as “dose dependant manner” and the “overall cellular uptake compared to XG19” value (ARPE-19 cells [5]; ARPE-19 cells, 10, 20, 50 μM) is reported as “higher cell uptake than XG19”. For the same molecule, the “overall cellular uptake compared to XG19” value (ARPE-19 cells [5]; ARPE-19 cells, 10, 20, 50 μM, listed as TAT-GAP19) was “much greater than for XG19 at all the tested concentrations”, the “subcellular localisation of peptide after uptake” value (ARPE-19 cells [5]; ARPE-19 cells, FITC vs DAPI) was “mainly accumulated into the nucleus” and the “concentration at which cellular uptake was detected (FITC fluorescence)” value (ARPE-19 cells [5]; ARPE-19 cells) was ≤ 10 µM.
